Measurements taken from PMC12432378 (Cell Reports Medicine, 2025).
Positions of bridges follow the written chain, without caps; N, C: chain ends. Non-standard residues stand in square brackets, D forms with d. Residues, ends and D or L forms follow the SMILES beside them. S5 = C=CCCC[C@](C)(N)C(=O)O

Columns and labels:
[1] = test system: pseudotyped SARS-CoV-2 (Delta); details: pseudotyped (Delta, 48 h)
[2] = test system: pseudotyped SARS-CoV-2 (KP.2); details: pseudotyped (KP.2, 48 h)
HCoV-OC43 = test system: HCoV-OC43; design: species or system newborn ICR mice; details: mouse, in vivo
MERS-CoV PsV = details: 48 h
MjHKU4r-CoV-1 PsV = details: for IC50: 48 h
authentic MjHKU4r-CoV-1 [3] = details: 72 h
MjHKU4r-S = assay type: cell-based, MjHKU4r-CoV-1; details: for IC50: read-out: IC50 against MjHKU4r-S-mediated cell-cell fusion
authentic MjHKU4r-CoV-1 [4] = assay type: cell-based

SMILES | IC50 [1] [nM] | IC50 [2] [nM] | Survival rate (HCoV-OC43) [%] | IC50 (MERS-CoV PsV) [nM] | IC50 (authentic HCoV-OC43) [nM] | IC50 (MjHKU4r-CoV-1 PsV) [nM] | IC50 (authentic MjHKU4r-CoV-1 [3]) [nM] | Improvement in inhibition of pseudotyped MjHKU4r-CoV-1 infection compared to original MjHKU4r-HR2P (MjHKU4r-CoV-1 PsV) [fold] | IC50 (MjHKU4r-S) [nM] | Blockage of MjHKU4r-CoV-1 N protein expression (immunofluorescence) (authentic MjHKU4r-CoV-1 [4]) | Inhibition of MjHKU4r-S-mediated cell-cell fusion at fixed concentration (MjHKU4r-S)
CC[C@H](C)[C@H](NC(=O)[C@H](C)NC(=O)[C@H](CCSC)NC(=O)[C@H](CCC(=O)O)NC(=O)[C@H](CC(=O)O)NC(=O)[C@H](CO)NC(=O)[C@H](CC(C)C)NC(=O)[C@H](CC(=O)O)NC(=O)[C@H](CC(C)C)NC(=O)[C@H](CC(C)C)NC(=O)[C@@H](NC(=O)[C@@H](NC(=O)[C@H](CC(N)=O)NC(=O)[C@@H](NC(=O)[C@H](CCCCN)NC(=O)[C@H](CO)NC(=O)[C@@H](NC(=O)[C@H](CCC(=O)O)NC(C)=O)[C@@H](C)CC)[C@@H](C)CC)C(C)C)[C@@H](C)O)C(=O)N[C@@H](CC(C)C)C(=O)N[C@@H](CC(C)C)C(=O)N[C@@]1(C)CCCC=CCCC[C@@](C)(C(=O)N[C@@H](CC(C)C)C(=O)N[C@@H](CC(N)=O)C(=O)N[C@@H](CC(=O)O)C(=O)N[C@@H](CO)C(=O)N[C@@H](Cc2ccc(O)cc2)C(=O)N[C@H](C(=O)N[C@@H](CC(=O)O)C(=O)N[C@@H](CC(C)C)C(=O)N[C@@H](CCCCN)C(=O)N[C@@H](CCC(=O)O)C(=O)N[C@@H](CC(C)C)C(N)=O)[C@@H](C)CC)NC(=O)[C@H](CCCCN)NC(=O)[C@H]([C@@H](C)CC)NC(=O)[C@H](C)NC1=O [MjHKU4r-HR2P10] (Ac-EISKINVTLLDLSDEMAILL[S5]AIK[S5]LNDSYIDLKEL-NH2; staple 21-25) | 115 | 85.9 | 66.7 | 37.2 | 480 |  |  |  |  |  | 
CSCC[C@H](NC(=O)[C@H](C)NC(=O)CNC(=O)[C@H](CC(C)C)NC(=O)[C@H](C)NC(=O)[C@H](CCC(N)=O)NC(=O)[C@H](CC(N)=O)NC(=O)[C@H](Cc1ccccc1)NC(=O)[C@H](CCCCN)NC(=O)[C@H](CC(N)=O)NC(=O)[C@H](C)NC(C)=O)C(=O)N[C@@H](CCC(N)=O)C(=O)N[C@H](C(=O)NCC(=O)N[C@@H](Cc1ccccc1)C(=O)N[C@H](C(=O)N[C@H](C(=O)N[C@@H](CO)C(=O)N[C@@H](CC(N)=O)C(=O)N[C@@H](CC(C)C)C(=O)N[C@@H](C)C(=O)N[C@@H](Cc1ccccc1)C(=O)N[C@@H](CO)C(=O)N[C@@H](CCCCN)C(=O)N[C@H](C(=O)N[C@@H](CCC(N)=O)C(=O)N[C@@H](CC(=O)O)C(=O)N[C@@H](C)C(=O)N[C@H](C(=O)N[C@@H](CC(N)=O)C(=O)N[C@@H](C)C(=O)N[C@@H](CC(N)=O)C(=O)N[C@@H](C)C(=O)N[C@@H](CC(N)=O)C(=O)N[C@@H](C)C(=O)N[C@@H](CC(C)C)C(=O)N[C@@H](CO)C(=O)N[C@@H](CCCCN)C(=O)N[C@@H](CC(C)C)C(=O)N[C@@H](C)C(=O)N[C@@H](CO)C(=O)N[C@@H](CCC(=O)O)C(N)=O)C(C)C)C(C)C)[C@@H](C)O)[C@@H](C)O)[C@@H](C)O [MjHKU4r-HR1P] |  |  |  |  |  | > 10000 | > 5000 |  |  |  | 
CC[C@H](C)[C@H](NC(=O)[C@H](C)NC(=O)[C@H](CCSC)NC(=O)[C@H](CCC(=O)O)NC(=O)[C@H](CC(=O)O)NC(=O)[C@H](CO)NC(=O)[C@H](CC(C)C)NC(=O)[C@H](CC(=O)O)NC(=O)[C@H](CC(C)C)NC(=O)[C@H](CC(C)C)NC(=O)[C@@H](NC(=O)[C@@H](NC(=O)[C@H](CC(N)=O)NC(=O)[C@@H](NC(=O)[C@H](CCCCN)NC(=O)[C@H](CO)NC(=O)[C@@H](NC(=O)[C@H](CCC(=O)O)NC(C)=O)[C@@H](C)CC)[C@@H](C)CC)C(C)C)[C@@H](C)O)C(=O)N[C@@H](CC(C)C)C(=O)N[C@@H](CC(C)C)C(=O)N[C@@H](CCC(=O)O)C(=O)N[C@@H](C)C(=O)N[C@H](C(=O)N[C@@H](CCCCN)C(=O)N[C@@H](CCC(N)=O)C(=O)N[C@@H](CC(C)C)C(=O)N[C@@H](CC(N)=O)C(=O)N[C@@H](CC(=O)O)C(=O)N[C@@H](CO)C(=O)N[C@@H](Cc1ccc(O)cc1)C(=O)N[C@H](C(=O)N[C@@H](CC(=O)O)C(=O)N[C@@H](CC(C)C)C(=O)N[C@@H](CCCCN)C(=O)N[C@@H](CCC(=O)O)C(=O)N[C@@H](CC(C)C)C(N)=O)[C@@H](C)CC)[C@@H](C)CC [MjHKU4r-HR2P9] | 408 | 460 |  | 114 | 1020 | 26 |  | 2.9 | 10.3 |  | 
CC[C@H](C)[C@H](NC(=O)[C@H](C)NC(=O)[C@H](CCSC)NC(=O)[C@H](CCC(=O)O)NC(=O)[C@H](CC(=O)O)NC(=O)[C@H](CO)NC(=O)[C@H](CC(C)C)NC(=O)[C@H](CC(=O)O)NC(=O)[C@H](CC(C)C)NC(=O)[C@H](CC(C)C)NC(=O)[C@@H](NC(=O)[C@@H](NC(=O)[C@H](CC(N)=O)NC(=O)[C@@H](NC(=O)[C@H](CCCCN)NC(=O)[C@H](CO)NC(=O)[C@@H](NC(=O)[C@H](CCC(=O)O)NC(C)=O)[C@@H](C)CC)[C@@H](C)CC)[C@@H](C)O)[C@@H](C)O)C(=O)N[C@@H](CC(C)C)C(=O)N[C@@H](CCC(N)=O)C(=O)N[C@@H](CCC(=O)O)C(=O)N[C@H](C(=O)N[C@H](C(=O)N[C@@H](CCCCN)C(=O)N[C@@H](CCC(N)=O)C(=O)N[C@@H](CC(C)C)C(=O)N[C@@H](CC(N)=O)C(=O)N[C@@H](CC(=O)O)C(=O)N[C@@H](CO)C(=O)N[C@@H](Cc1ccc(O)cc1)C(=O)N[C@H](C(=O)N[C@@H](CC(=O)O)C(=O)N[C@@H](CC(C)C)C(=O)N[C@@H](CCCCN)C(=O)N[C@@H](CCC(=O)O)C(=O)N[C@@H](CC(C)C)C(N)=O)[C@@H](C)CC)C(C)C)C(C)C [MjHKU4r-HR2P] |  |  |  |  |  | 62 | 26 |  | 37 | near-complete blockage | completely inhibited
